Experimental data taken from US20130143929A1, “FUNGICIDAL IMIDAZOLES” (EI DU PONT DE NEMOURS AND COMPANY, priority 2010, published 2013).
Marks after values point to notes of the source that are not given here.

Legend:
Type in all cases: in vivo
[1] = test system: Botrytis cinerea (the causal agent of tomato Botrytis); assay: Test C: tomato Botrytis, preventive spray on tomato seedlings, visual disease rating; conditions: for Test C rating (100 = 100% disease control, 0 = no disease control relative to the controls): tomato Botrytis, preventive spray on tomato seedlings, no asterisk (standard test suspension concentration, not 40 ppm); for Test C rating (% disease control, tomato Botrytis): 100 = 100% disease control
How it was run: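 Test suspension (acetone/water with 250 ppm Trem 014; 200 ppm equivalent to 800 g/ha) sprayed to run-off on tomato seedlings; B. cinerea spores inoculated next day. After 48 h saturated humidity at 20° C then 3 days at 24° C, disease rated visually as % control relative to untreated controls (0–100).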

[2] = test system: Septoria tritici (the causal agent of wheat leaf blotch); assay: Test B: wheat leaf blotch, preventive spray on wheat seedlings, visual disease rating; conditions: for Test B rating (100 = 100% disease control, 0 = no disease control relative to the controls): wheat leaf blotch, preventive spray on wheat seedlings, no asterisk (standard test suspension concentration, not 40 ppm); for Test B rating (% disease control, wheat leaf blotch): 100 = 100% disease control
How it was run: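 Wheat seedlings sprayed to run-off with compound suspension (acetone/water with 250 ppm Trem 014; 200 ppm ≈ 800 g/ha, some at 40 ppm), inoculated next day with Septoria tritici spores. 48 h saturated humidity at 24 °C, then 19 days at 20 °C; visual rating, 100 = full control.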

[3] = test system: Blumeria graminis f. sp. tritici (also known as Erysiphe graminis f. sp. tritici, the causal agent of wheat powdery mildew); assay: Test D: wheat powdery mildew, preventive spray on wheat seedlings, visual disease rating; conditions: for Test D rating (100 = 100% disease control, 0 = no disease control relative to the controls): wheat powdery mildew, preventive spray on wheat seedlings, no asterisk (standard test suspension concentration, not 40 ppm); for Test D rating (% disease control, wheat powdery mildew): 100 = 100% disease control
How it was run: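 Compound suspended in acetone/water (50/50) with 250 ppm Trem 014 and sprayed to run-off on wheat seedlings (200 ppm ≈ 800 g/ha), then inoculated next day with spore dust. Disease rated visually after 8 days at 20 °C as % control relative to untreated plants (0-100).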

[4] = test system: Puccinia recondite f. sp. tritici (the causal agent of wheat leaf rust); assay: Test A: wheat leaf rust, preventive spray on wheat seedlings, visual disease rating; conditions: for Test A rating (100 = 100% disease control, 0 = no disease control relative to the controls): wheat leaf rust, preventive spray on wheat seedlings, no asterisk (standard test suspension concentration, not 40 ppm); for Test A rating (% disease control, wheat leaf rust): 100 = 100% disease control
How it was run: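 Wheat seedlings were sprayed to run-off with compound suspended in acetone/water containing 250 ppm Trem 014 (200 ppm ≈ 800 g/ha; some at 40 ppm). Puccinia recondite spores were inoculated the next day. Plants were held 24 h saturated at 20° C, then 7 days at 20° C, and disease control was rated visually on a 0–100 scale against controls.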

[5] = no asterisk: standard test suspension concentration, 0 = no control relative to controls
[6] = asterisk: 40 ppm test suspension, 0 = no control

Row | SMILES | Test C rating (% disease control, tomato Botrytis) [1, 5] [%] | Test B rating (% disease control, wheat leaf blotch) [2, 5] [%] | Test D rating (% disease control, wheat powdery mildew) [3, 5] [%] | Test A rating (% disease control, wheat leaf rust) [4, 5] [%] | Test C rating (% disease control, tomato Botrytis) [1, 6] | Test B rating (% disease control, wheat leaf blotch) [2, 6] | Test A rating (% disease control, wheat leaf rust) [4, 6] | further results
1 | Cc1cc(F)ccc1C(O)c1cnc(C)n1-c1c(F)cc(F)cc1Cl (stereo not shown) [compound 368] |  |  |  |  |  |  |  | Test C rating (100 = 100% disease control, 0 = no disease control relative to the controls) [1]: 99%; Test B rating (100 = 100% disease control, 0 = no disease control relative to the controls) [2]: 100%; Test D rating (100 = 100% disease control, 0 = no disease control relative to the controls) [3]: 0%; Test A rating (100 = 100% disease control, 0 = no disease control relative to the controls) [4]: 100%
2 | Cc1ncc(C(O)c2ccc(F)cc2Cl)n1-c1c(F)cc(F)cc1Cl (stereo not shown) [compound 370] |  |  |  |  |  |  |  | Test C rating (100 = 100% disease control, 0 = no disease control relative to the controls) [1]: 100%; Test B rating (100 = 100% disease control, 0 = no disease control relative to the controls) [2]: 100%; Test D rating (100 = 100% disease control, 0 = no disease control relative to the controls) [3]: 0%; Test A rating (100 = 100% disease control, 0 = no disease control relative to the controls) [4]: 100%
3 | Cc1ncc(C(O)c2ccc(Cl)cc2Cl)n1-c1c(F)cc(F)cc1Cl (stereo not shown) [compound 371] |  |  |  |  |  |  |  | Test C rating (100 = 100% disease control, 0 = no disease control relative to the controls) [1]: 58%; Test B rating (100 = 100% disease control, 0 = no disease control relative to the controls) [2]: 100%; Test D rating (100 = 100% disease control, 0 = no disease control relative to the controls) [3]: 0%; Test A rating (100 = 100% disease control, 0 = no disease control relative to the controls) [4]: 95%
4 | Cc1ncc(C(O)c2ccc(Cl)cc2)n1-c1ccc(F)cc1F (stereo not shown) [compound 378] | 0 | 74 | 0 | 37 |  |  |  | 
5 | Cc1cc(F)ccc1C(O)c1c(Br)nc(C)n1-c1ccc(F)cc1F (stereo not shown) [compound 379] | 99 | 100 | 79 | 100 |  |  |  | 
6 | Cc1nc(Br)c(C(O)c2ccc(Cl)cc2)n1-c1ccc(F)cc1F (stereo not shown) [compound 380] | 100 | 100 | 0 | 98 |  |  |  | 
7 | Cc1ncc(C(O)c2ccc(F)cc2F)n1-c1ccc(F)cc1F (stereo not shown) [compound 381] | 0 | 97 | 0 | 88 |  |  |  | 
8 | Cc1nc(Br)c(C(O)c2ccc(F)cc2F)n1-c1ccc(F)cc1F (stereo not shown) [compound 382] | 99 | 100 | 0 | 100 |  |  |  | 
9 | Cc1nc(Cl)c(C(O)c2ccc(F)cc2Br)n1-c1c(F)cccc1F (stereo not shown) [compound 383] |  |  |  |  | 99* % | 100* % | 100* % | Test D rating (% disease control, wheat powdery mildew) [3, 6]: 92* %
10 | Cc1nc(Br)c(C(O)c2ccc(F)cc2Br)n1-c1c(F)cccc1F (stereo not shown) [compound 384] |  |  |  |  | 65* % | 100* % | 100* % | Test D rating (% disease control, wheat powdery mildew) [3, 6]: 72* %
11 | Cc1nc(Cl)c(C(O)c2ccc(F)cc2Br)n1-c1c(F)cccc1Cl (stereo not shown) [compound 386] |  |  |  |  | 100* % | 100* % | 100* % | Test D rating (% disease control, wheat powdery mildew) [3, 6]: 73* %
12 | Cc1nc(Br)c(C(O)c2ccc(F)cc2Br)n1-c1c(F)cccc1Cl (stereo not shown) [compound 387] |  |  | 90 |  | 99* % | 100* % | 100* % | 
13 | Cc1nc(Cl)c(C(O)c2ccc(F)cc2F)n1-c1c(F)cccc1Cl (stereo not shown) [compound 389] |  |  | 98 |  | 100* % | 100* % | 100* % | 
14 | COc1cc(F)c(-n2c(C)nc(Br)c2C(O)c2ccc(F)cc2C)c(F)c1 (stereo not shown) [compound 391] |  |  |  |  | 0* % | 100* % | 99* % | Test D rating (% disease control, wheat powdery mildew) [3, 6]: 0* %
15 | COc1cc(F)c(-n2c(C)nc(Br)c2C(O)c2ccc(F)cc2Cl)c(F)c1 (stereo not shown) [compound 392] |  |  |  |  | 0* % | 100* % | 99* % | Test D rating (% disease control, wheat powdery mildew) [3, 6]: 0* %
16 | Cc1nc(Br)c(C(O)c2ccc(F)cc2F)n1-c1c(F)cccc1Br (stereo not shown) [compound 393] | 100 | 100 | 97 | 100 |  |  |  | 
17 | Cc1nc(Br)c(C(O)c2ccc(F)cc2F)n1-c1c(F)cc(F)cc1Br (stereo not shown) [compound 394] | 100 | 100 | 72 | 100 |  |  |  | 
18 | Cc1cc(F)ccc1C(O)c1cnc(C)n1-c1ccc(F)cc1Cl (stereo not shown) [compound 395] | 21 | 100 | 35 | 99 |  |  |  | 
19 | Cc1ncc(C(O)c2ccc(F)cc2F)n1-c1ccc(F)cc1Cl (stereo not shown) [compound 396] | 87 | 100 | 0 | 100 |  |  |  | 
20 | Cc1cc(F)ccc1C(O)c1c(Br)nc(C)n1-c1ccc(F)cc1Cl (stereo not shown) [compound 397] | 100 | 100 | 73 | 100 |  |  |  | 
21 | Cc1cc(F)ccc1C(O)c1c(Cl)nc(C)n1-c1ccc(F)cc1Cl (stereo not shown) [compound 398] | 46 | 100 | 0 | 100 |  |  |  | 
22 | Cc1nc(Br)c(C(O)c2ccc(F)cc2F)n1-c1ccc(F)cc1Cl (stereo not shown) [compound 399] | 99 | 100 | 90 | 100 |  |  |  | 
23 | Cc1nc(Br)c(C(O)c2ccc(F)cc2F)n1-c1c(F)cccc1Cl (stereo not shown) [compound 400] |  |  |  |  | 100* % | 100* % | 100* % | Test D rating (% disease control, wheat powdery mildew) [3, 6]: 100* %
24 | COc1cc(F)c(-n2c(C)nc(Cl)c2C(O)c2ccc(F)cc2Cl)c(F)c1 (stereo not shown) [compound 403] |  |  |  |  | 8* % | 100* % | 99* % | Test D rating (% disease control, wheat powdery mildew) [3, 6]: 0* %
25 | Cc1cc(F)ccc1C(O)c1cnc(C)n1-c1c(F)cccc1Br (stereo not shown) [compound 405] | 9 | 94 | 0 | 99 |  |  |  | 
